According to US20240245682A1, “ALPHA-V-BETA-8 INTEGRIN INHIBITORS AND USES THEREOF” (Pliant Therapeutics, Inc., priority 2022, published 2024):

What was measured:
[1] = system: TKCC-08 tumors; assay: Subcutaneous FNX-resistant TKCC-08 PDX model of PDAC (Example B12); format: in vivo, NSG mice
Description: (§1) Table B-9 depicts the study design to determine the efficacy of selective αvβ1/αvβ8 SMI in the orthotopic ECM-high PDX models of PDAC. Table B-10 depicts the study design for the TKCC-10 PDX model.
Table B-12 depicts the study design for the TKCC-08 model.
FNX is a standard of care chemotherapy regimen for pancreatic ductal adenocarcinoma. However, the clinical response to FNX remains bleak. To assess if Compound 39 augmented the therapeutic benefit of FNX, Compound 39 was tested alone and in combination with FNX in the TKCC-08 model, which is made FNX-resistant by continuous exposure to the FNX.

[2] = biological target: human integrin αVβ6 (Homo sapiens, UniProt P06756+P18564); assay: AlphaScreen proximity-based integrin binding assay with TGF-b1 LAP; settings: values given as ranges
Method in brief: (§2)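 Purified human integrin incubated with compound, TGF-b1 LAP, biotinylated anti-LAP antibody and acceptor beads for 2 h, then streptavidin donor beads 30 min, room temperature, in 50 mM Tris-HCl pH 7.5, 0.1% BSA, 1 mM CaCl2/MgCl2. AlphaScreen signal (680 nm excitation, 520-620 nm emission); IC50 by four-parameter fit.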

[3] = biological target: human integrin αVβ8 (Homo sapiens, UniProt P06756+P26012); assay: as above; settings: values given as ranges
Method in brief: as §2

[4] = biological target: human integrin αVβ1 (Homo sapiens, UniProt P05556+P06756); assay: as above; settings: values given as ranges
Method in brief: as §2

[5] = system: TKCC-10 PDX; assay: Orthotopic TKCC-10 (PDX-10) PDX model of PDAC (Example B12); format: in vivo, NSG mice
Description: as §1
TKCC-10 PDX bearing mice were treated with dose regimen according to the schematic in Table B-9 and FIG. 24A depicts a schematic diagram of the treatment regimen in the TKCC-10 mice. FIG. 24B depicts a graph showing final tumor weight for TKCC-10 PDX bearing mice after treatment with G/A, Compound 39, and Compound 39+G/A. FIG. 24C depicts a graph showing final tumor weight for TKCC-10 PDX bearing mice after treatment with G/A, ADWA-11, and ADWA-11+G/A.

[6] = system: human breast and melanoma tumor tissues; assay: Ex vivo cultured human breast and melanoma tumor tissues (Example B9); format: cell-based
Description: Inhibition of αvβ1 and TGF-β mediated by Compound 39 of the examples was monitored via cell adhesion assays and transcriptomic analyses. αvβ1 protein expression was evaluated on human tumor tissues via immunohistochemistry using an indigenously developed anti-αvβ1 antibody. Efficacy of Compound 39 monotherapy and in combination with ICB was evaluated in syngeneic mouse models bearing EMT6 and Pan02 tumors. Animal survival, tumor growth, transcriptomic analyses, tissue fibrosis, and TILs were monitored along with circulating lymphocytes and cytokines. Tissue and circulating biomarkers of response to Compound 39 were identified. Human breast and melanoma tumor tissues were cultured ex vivo and Compound 39 activity was assessed by measuring CD8+ cytotoxic T cells and tumor apoptosis.

[7] = system: Pan02 tumors; assay: Pan02 (pancreatic) syngeneic tumor model (Example B6); format: in vivo, C57BL/6 mice
Description: The therapeutic impact of Compound 39 of the examples in combination with anti PD-1 was studied for several […] mouse models, as shown in Table B-3. For each model, four dosing regimens were studied, using a group size of 10 mice per dosing regimen per model, and a total of 40 mice per model.
Mice were shaved and tumor cells as indicated in Table B-3 were subcutaneously implanted in a 100 μl cell suspension that was subcutaneously injected into the front/rear flank of each mouse (as indicated in Table B-3).
There was no dosing holiday. Dietary supplements were uniform for all animals in the same group.
Animals were monitored weekly for changes in tumor volume. Tumors were measured at least once a week using calipers. Tumor volume was calculated using the equation: (longest diameter*shortest diameter^2)/2. […]
Tumor tissues (50 to 80 mg) were homogenized using metal beads in pre-chilled RINO screw cap tubes, using lysis matrix (MP Lysing Matrix S [⅛″], 2 mL Tube MP Biomedical Cat #116925100) on MP Fast Prep 24 instrument. […] Hybridized reactions were read on nCounter MAX (Nanostring), and data were analyzed using nCounter software.
Table B-5 lists the catalog numbers of the antibodies used in the immunohistochemical (IHC) studies. Quantification of staining was done using the HALO software package (Indica Labs, Albaquerque, NM).

Sequence of human integrin αVβ1 (P06756 31-992 limits assumed): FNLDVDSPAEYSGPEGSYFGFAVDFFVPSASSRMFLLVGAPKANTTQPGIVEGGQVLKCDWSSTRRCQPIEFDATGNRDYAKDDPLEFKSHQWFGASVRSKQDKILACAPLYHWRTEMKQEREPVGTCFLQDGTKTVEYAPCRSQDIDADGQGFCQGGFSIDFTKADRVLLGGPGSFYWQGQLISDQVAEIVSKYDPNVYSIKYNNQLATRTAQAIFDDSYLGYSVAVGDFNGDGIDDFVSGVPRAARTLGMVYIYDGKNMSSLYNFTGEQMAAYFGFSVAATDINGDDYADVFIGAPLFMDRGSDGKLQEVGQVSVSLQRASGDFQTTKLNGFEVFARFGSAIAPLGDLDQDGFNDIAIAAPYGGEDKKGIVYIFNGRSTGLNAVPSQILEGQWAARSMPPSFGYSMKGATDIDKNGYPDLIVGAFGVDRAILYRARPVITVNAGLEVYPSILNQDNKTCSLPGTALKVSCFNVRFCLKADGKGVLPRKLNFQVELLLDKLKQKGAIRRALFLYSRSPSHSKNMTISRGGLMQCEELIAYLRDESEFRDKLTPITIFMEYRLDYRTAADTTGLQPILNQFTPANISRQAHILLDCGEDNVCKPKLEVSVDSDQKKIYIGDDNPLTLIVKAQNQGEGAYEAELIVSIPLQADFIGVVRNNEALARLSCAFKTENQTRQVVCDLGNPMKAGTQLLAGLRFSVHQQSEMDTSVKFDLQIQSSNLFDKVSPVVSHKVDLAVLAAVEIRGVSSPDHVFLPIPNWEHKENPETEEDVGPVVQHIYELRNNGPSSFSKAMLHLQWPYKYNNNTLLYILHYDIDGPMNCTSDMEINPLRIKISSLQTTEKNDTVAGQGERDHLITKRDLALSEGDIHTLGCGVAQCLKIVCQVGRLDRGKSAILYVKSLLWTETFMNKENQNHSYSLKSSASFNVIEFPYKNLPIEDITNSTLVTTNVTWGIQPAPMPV
Sequence of human integrin αVβ1 (P05556 21-728 limits assumed): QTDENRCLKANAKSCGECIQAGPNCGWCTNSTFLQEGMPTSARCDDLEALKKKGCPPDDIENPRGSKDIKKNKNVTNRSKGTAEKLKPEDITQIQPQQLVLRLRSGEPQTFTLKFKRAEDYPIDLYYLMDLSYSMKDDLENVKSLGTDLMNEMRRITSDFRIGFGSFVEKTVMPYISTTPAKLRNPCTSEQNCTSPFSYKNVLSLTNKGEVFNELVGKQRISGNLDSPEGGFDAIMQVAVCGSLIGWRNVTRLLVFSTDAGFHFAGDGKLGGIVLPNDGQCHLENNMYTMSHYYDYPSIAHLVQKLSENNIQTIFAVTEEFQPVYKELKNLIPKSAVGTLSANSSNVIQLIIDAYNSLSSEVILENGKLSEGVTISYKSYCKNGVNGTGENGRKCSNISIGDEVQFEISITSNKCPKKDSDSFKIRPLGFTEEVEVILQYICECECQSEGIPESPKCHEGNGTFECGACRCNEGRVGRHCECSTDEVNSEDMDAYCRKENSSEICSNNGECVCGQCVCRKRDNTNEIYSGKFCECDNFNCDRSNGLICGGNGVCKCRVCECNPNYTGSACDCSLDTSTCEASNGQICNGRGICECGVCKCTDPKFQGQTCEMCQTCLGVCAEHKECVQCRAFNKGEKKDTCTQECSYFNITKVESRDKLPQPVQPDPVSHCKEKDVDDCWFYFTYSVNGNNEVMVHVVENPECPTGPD
Sequence of human integrin αVβ6 (P06756 31-992 limits assumed): as the sequence (P06756 31-992 limits assumed) above
Sequence of human integrin αVβ6 (P18564 22-707 limits assumed): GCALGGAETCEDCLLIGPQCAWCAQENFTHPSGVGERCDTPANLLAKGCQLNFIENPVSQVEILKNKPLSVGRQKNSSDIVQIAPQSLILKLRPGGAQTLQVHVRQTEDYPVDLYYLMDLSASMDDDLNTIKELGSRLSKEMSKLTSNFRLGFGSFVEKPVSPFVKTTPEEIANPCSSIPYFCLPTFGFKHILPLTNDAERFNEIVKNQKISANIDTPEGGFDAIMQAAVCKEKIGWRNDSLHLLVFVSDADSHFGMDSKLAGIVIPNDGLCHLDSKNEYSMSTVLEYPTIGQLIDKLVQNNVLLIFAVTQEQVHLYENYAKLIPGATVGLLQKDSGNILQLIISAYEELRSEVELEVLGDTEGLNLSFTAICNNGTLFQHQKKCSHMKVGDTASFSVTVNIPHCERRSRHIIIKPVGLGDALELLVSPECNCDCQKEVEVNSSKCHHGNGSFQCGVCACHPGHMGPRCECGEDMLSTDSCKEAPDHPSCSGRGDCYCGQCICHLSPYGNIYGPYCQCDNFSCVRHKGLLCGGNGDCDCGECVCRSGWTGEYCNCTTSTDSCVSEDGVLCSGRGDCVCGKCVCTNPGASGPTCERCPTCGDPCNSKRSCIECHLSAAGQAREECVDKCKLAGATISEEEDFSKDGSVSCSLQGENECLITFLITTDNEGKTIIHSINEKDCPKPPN
Sequence of human integrin αVβ8 (P06756 31-992 limits assumed): as the sequence (P06756 31-992 limits assumed) above
Sequence of human integrin αVβ8 (P26012 43-684 limits assumed): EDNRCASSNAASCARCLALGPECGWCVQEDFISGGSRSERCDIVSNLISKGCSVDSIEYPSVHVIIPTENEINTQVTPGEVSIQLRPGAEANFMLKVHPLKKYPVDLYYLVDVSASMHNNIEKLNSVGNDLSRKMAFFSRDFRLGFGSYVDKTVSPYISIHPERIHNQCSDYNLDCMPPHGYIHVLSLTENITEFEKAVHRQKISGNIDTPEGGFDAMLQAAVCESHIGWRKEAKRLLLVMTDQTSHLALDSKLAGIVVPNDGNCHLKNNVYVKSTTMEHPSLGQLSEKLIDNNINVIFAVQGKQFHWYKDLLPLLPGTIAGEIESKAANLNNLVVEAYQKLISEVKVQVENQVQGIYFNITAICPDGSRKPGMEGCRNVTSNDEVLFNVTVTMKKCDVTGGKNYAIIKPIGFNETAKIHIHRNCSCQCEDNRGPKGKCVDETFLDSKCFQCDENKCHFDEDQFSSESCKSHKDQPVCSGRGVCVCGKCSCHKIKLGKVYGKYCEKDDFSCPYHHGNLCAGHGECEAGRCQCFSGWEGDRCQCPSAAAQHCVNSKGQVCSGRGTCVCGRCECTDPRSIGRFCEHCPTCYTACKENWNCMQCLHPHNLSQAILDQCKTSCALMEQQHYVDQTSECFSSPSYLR

Cc1ncnc(Cl)c1C1(C(=O)N[C@@H](CCOCCCCc2ccc3c(n2)NCCC3)C(=O)O)CC1 [Compound 39, N-(1-(4-chloro-6-methylpyrimidin-5-yl)cyclopropane-1-carbonyl)-O-(4-(5,6,7,8-tetrahydro-1,8-naphthyridin-2-yl)butyl)-L-homoserine]
mean tumor weight ([1]; FNX-resistant subcutaneous tumors, Compound 39 300 mg/kg BID oral, FNX i.v. weekly, FIG. 27B): 0.4 ± 0.15 g
tumor growth and tumor weight ([1]; in words, FIG. 27A, 27B): significantly reduced the tumor growth and the tumor weight
IC50 [2]: ≥ 500 nM
IC50 [3]: < 50 nM
IC50 [4]: < 50 nM
mean tumor weight ([5]; 30 days, Compound 39 300 mg/kg BID oral, G 100 mg/kg / A 30 mg/kg i.p. once per week, FIG. 24B): 0.798 ± 0.17 g
mean number of lung metastases ([5]; FIG. 25D): 4.1±3.2
tumor weight / tumor growth ([5]; in words, FIG. 24C, 73): significantly blocked tumor growth and improved the response to the standard of care (SOC) chemotherapy G/A
cytotoxic CD8^+ T cells [6]: significant increase in cytotoxic CD8^+T cells
fibrotic markers [6]: reduction in fibrotic markers
tumor growth ([7]; Pan02, FIG. 16A, 41): inhibited Pan02 tumor growth
CD8^+ T cell infiltration ([7]; in words, FIG. 16B, 43): increased T-cell infiltration
